Read-outs that look alike come from different tables or passages of the source.
Columns and labels:
eyes of rabbits = tested on: eyes of rabbits
Procedure: Fifty-two (52) healthy rabbits of the New Zealand Cross variety (26 male, 26 female) weighing 1.5 kg to 2.5 kg were individually marked for identification and were housed individually in suspended cages. The animals received a commercially available pelleted rabbit feed on a daily basis, with tap water available ad libitum.
Two animals in each group (1 male, 1 female) were selected for pretreatment fundus photography and fluorescein angiography.
The fundus photography was performed by restraining the animals and visualizing the optic nerve, retinal arcades and fundus with a KOWA® RC-3 Fundus Camera loaded with Kodak Gold 200 ASA film.
The fluorescein angiography involved a 1.5-ml injection of 2% sterile fluorescein solution via the marginal ear vein. Approximately 30 seconds post-injection the fluorescein was visualized upon localization of the optic nerve, retinal vessels and fundus.
The following day, each animal was anesthetized by intravenous administration of a combination of 34 mg/kg of ketamine hydrochloride and 5-mg/kg xylazine. The eyelids were retracted using a lid speculum, and the eyes were disinfected with an iodine-povidone wash.
The experimental treatments administered to each animal group were as follows:
The day following the injections (Day 1) the 26 animals, which were subjected to the fundus photography and fluorescein angiography, were observed using the same methods as for the pre-dose examination.
Alternatively, one randomly selected rabbit was euthanized by pentobarbital injection but then fixed by intracardiac injection of the gluteraldehyde solution into the left ventricle to determine the effect of the fixation procedure on the histology findings within the enucleated eyes.
On Day 7, the 13 female rabbits that had been previously photographed and angiography performed were subjected to same observations following the methods previously described.
The remaining 26 animals were euthanized as described above 7 days after dosing. The eyes were fixed in the same manner as those, which had been fixed on day 2. […]

retina of rabbit eyes [1] = assay type: in vivo; settings: for Electro Retinography Results / Histological and Electron Microscopic Results / Retinal Detachment at 48 hours Post 2nd Injection / Retinal Reattachment at 3 weeks Post 2nd Injection: 50 μl of 75 I.U. hyaluronidase intravitreally, 3 days later 50 μl sterile PEG, n = 6; for Retinal Detachment at 48 hours Post 2nd Injection / Retinal Reattachment at 3 weeks Post 2nd Injection: fundus photos, β scans; for safety by indirect ophthalmoscopy, fundus photography, light and electron microscopy and electroretinography: intravitreal hyaluronidase followed by intravitreal PEG
Procedure: In this study, 12-pigmented rabbits were divided into 2 groups of 6 animals each. Group I consisted of six animals that were injected OD with PEG 300. […] As a control, these same animals received saline injections OS and thus served as a control group (Group Ia).
Group II consisted of six animals that were injected that were injected OD with PEG 400. […] As a control, these same animals received saline injections OS and thus served as a control group (Group IIa).
During this procedure a number of ophthalmic methodologies were utilized to monitor the effects and progress of the various experimental treatments. For example, indirect ophthalmoscopy was utilized by a retinal specialist to determine the effects of administering a retinal detaching dose of the compounds disclosed. […] Light microscopy and electron microscopy of eye samples was used to determine the effect of the treatments from a histological perspective. Ultrasonography techniques were used to objectively determine the presence of retinal detachment. Additionally, electroretinography was performed to determine changes due to treatment.

detached retinas of cats = assay: Protection of surgically detached retina from degeneration in adult cats (Example 6); assay type: in vivo, adult cats (Felis domesticus); settings: 100 μl of Table 5 formulation 6 hours after detachment, 3 days
Procedure: The study is performed on 15 adult cats (Felis domesticus) and modeled generally on the study of Mervin, et al., “Limiting Photoreceptor Death and Deconstruction During Experimental Retinal Detachment: The Value of Oxygen Supplementation,” Am. J. Ophthal. 128:155-164 (1999). Unlike the Mervin study however, the present experiment examines the effect of hyaluronidase administration to prevent photoreceptor death rather than the effect of supplemental oxygen administration.
Three groups of five adult domestic cats (Experimental Group I, Experimental Group II, and Control Group I) are anesthetized using 10 mg/kg of xylazine (Boehringer Ingelheim Vetmedica, Inc., St. Joseph, Mo.) and 50 mg/kg of ketamine (Sigma, St. Louis, Mo.). The surgical method of Anderson, et al., (Invest. Ophthalmol. Vis. Sci. 27:168-183 (1986)) is used to induce retinal detachment in two experimental groups of 5 cats each, however, the lens and vitreous of these cats are left in place during the surgical procedure.
During the procedure, a glass micropipette is introduced through a 20-gauge hole in the sclera at the region of the pars plana. A balanced salt solution (BSS) containing 0.25% sodium hyaluronate is then infused between the neural retina and retinal pigment epithelium. A single detachment is produced in the right eye of each of the 10 cats.
The experimental groups are allowed to recover for six hours. […]

retina of rabbit eyes [2] = assay: Induction of reversible retinal detachment in rabbits using varying concentration of PEG 300 (Example 5); assay type: in vivo
Procedure: In this study, 8-pigmented rabbits were divided into 4 groups of 2 animals each. Group I consisted of 2 animals treated with 100% PEG 300. As performed in Example 1, these animals were first injected intravitreally (OD) with 50 μl of 75 I.U. of Hyaluronidase solution (Group I). Fourteen days after the first injection these animals received 50 μl of 100% sterile PEG 300 intravitreally. The OS eye was used as the untreated control as described in Example 1 (Group Ia). A second group of two animals, Group II, was first injected intravitreally (OD) with 50 μl of 75 I.U. of Hyaluronidase solution and then injected 14 days later with 50 μl of sterile 75% solution of PEG 300 intravitreally. The OS eyes of these animals were used as the untreated controls (Group IIa). […] were treated according to the same protocols as described for Groups I, Ia, II, and IIa with the exception that Group III received 50 μl of 50% sterile solution of PEG 300 intravitreally. Similarly, Groups IV and IVa were treated according to the same protocols as described above, however, Group IV received 50 μl of 25% sterile solution of PEG 300 intravitreally.
All retinal detachments and retinal re-attachments were documented using Fundus Photography and Ultrasonography (β-Scan). In addition, 3 rabbit eyes were enucleated and the eyes were prepared for light microscopy as well as for Electron Microscopy.

[3] = 75 I.U. hyaluronidase, 14 days later varying concentrations of PEG 300
[4] = Groups I-IV OD: 75 I.U. hyaluronidase, 14 days later 50 μl sterile 100%, 75%, 50% or 25% PEG 300, fundus photos, β scans

Compound	treatment-related toxicities, eyes examined grossly and microscopically (eyes of rabbits; Group 2, BSS+thimerosal 0.0075 mg, day 2)	treatment-related toxicities, eyes examined grossly and microscopically (eyes of rabbits; Group 2, BSS+thimerosal 0.0075 mg, day 7)	treatment-related toxicities, eyes examined grossly and microscopically (eyes of rabbits; Group 3, BSS+thimerosal 0.025 mg, day 2 and 7 post dose)	Electro Retinography Results (retina of rabbit eyes [1])	Histological and Electron Microscopic Results (retina of rabbit eyes [1])	Retinal Detachment at 48 hours Post 2nd Injection (retina of rabbit eyes [1])	Retinal Reattachment at 3 weeks Post 2nd Injection (retina of rabbit eyes [1])	safety by indirect ophthalmoscopy, fundus photography, light and electron microscopy and electroretinography (retina of rabbit eyes [1])	thickness of the outer nuclear layer after retinal detachment surgery (detached retinas of cats)	time to induced retinal detachment after second intravitreal injection (retina of rabbit eyes [2]; [3])	time to spontaneous retinal re-attachment after the PEG injection (retina of rabbit eyes [2]; [3])	Retinal Detachment At 48 hours Post 2nd Injection (retina of rabbit eyes [2]; [4])	Retinal Reattachment At 3 weeks Post 2nd Injection (retina of rabbit eyes [2]; [4])	Histological and Electron Microscopic Results (retina of rabbit eyes [2]; Groups I-IV OD: 100%, 75%, 50% or 25% PEG 300, 3 enucleated eyes)	Electro Retinography Results (retina of rabbit eyes [2]; Groups I-IV OD: 100%, 75%, 50% or 25% PEG 300, after retinal detachment and spontaneous re-attachment 3 weeks later)	safety / toxicity of intravitreal injection (retina of rabbit eyes [2]; hyaluronidase followed by PEG 300 at 100%, 75%, 50% and 25% in saline vehicle)
C[CH2][Hg][S]c1ccccc1C(=O)[O-].[Na+] [thimerosal]	free of toxicity	breakdown of the blood retinal barrier	severe treatment-related toxic effects													
Polyethylene Glycol 300 [PEG 300]				Normal	Normal	All	All	safe and without causing any toxicity	Thinning of the outer nuclear layer is observed	≤ 48 h	≤ 3 weeks	All	All	No Adverse	No Adverse	safe and without causing any toxicity
Polyethylene Glycol 400 [PEG 400]				Normal	Normal	All	All	safe and without causing any toxicity								
